Test results published in US5112810A, “Method for treating multiple sclerosis” (Mitsui Pharmaceuticals, Inc., priority 1981, dated 1992).
Where a SMILES comes first, the peptide text is derived from it. [ ]: non-standard residue; d: D form. pGlu = O=C1CC[C@@H](C(=O)O)N1

Tested on: male Hartley guinea pig
Experiment: Toxicity (Experiment 3)
Assay type: in vivo
Details: FTS 100 mg/kg
Procedure: Toxicity was studied by treating a male Hartley guinea pig with FTS at a dose of 100 mg/kg and observing the animal for one-week. This animal was still alive at the end of one-week observation period.

With `C[C@H](NC(=O)[C@@H]1CCC(=O)N1)C(=O)N[C@@H](CCCCN)C(=O)N[C@@H](CO)C(=O)N[C@@H](CCC(N)=O)C(=O)NCC(=O)NCC(=O)N[C@@H](CO)C(=O)N[C@@H](CC(N)=O)C(=O)O` [FTS, p-Glu-Ala-Lys-Ser-Gln-Gly-Gly-Ser-Asn-Oh] ([pGlu]AKSQGGSN-OH) the “Toxicity: survival at the end of one-week observation” value was “still alive”.
